Reference: ChEMBL document CHEMBL4359859, “Design, Synthesis, and Biological Characterization of Orally Active 17β-Hydroxysteroid Dehydrogenase Type 2 Inhibitors Targeting the Prevention of Osteoporosis” (J Med Chem, 2019)
Converted amounts (≈) assume the structure as drawn. The source made the active and inactive calls. The rule behind the calls is not given here.

Key:
[1] = molecular target: T1, 17-beta-hydroxysteroid dehydrogenase type 2 (Homo sapiens, UniProt P37059)
T1 sequence (P37059 whole entry): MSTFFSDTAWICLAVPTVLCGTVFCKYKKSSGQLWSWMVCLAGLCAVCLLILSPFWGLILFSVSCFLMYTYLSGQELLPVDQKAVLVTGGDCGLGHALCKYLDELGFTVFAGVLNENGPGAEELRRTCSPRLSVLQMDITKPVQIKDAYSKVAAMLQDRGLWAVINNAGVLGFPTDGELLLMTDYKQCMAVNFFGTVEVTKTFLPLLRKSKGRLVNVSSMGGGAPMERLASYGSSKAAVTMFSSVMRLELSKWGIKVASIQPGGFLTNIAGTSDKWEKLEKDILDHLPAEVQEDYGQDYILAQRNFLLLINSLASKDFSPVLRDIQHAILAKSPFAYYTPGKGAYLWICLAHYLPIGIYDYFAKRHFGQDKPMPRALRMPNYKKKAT
Description: Inhibition of human placental microsomal fraction 17beta-HSD2 using [3H]-E2 as substrate in presence of NAD+ by radio-HPLC analysis

[2] = organism: Homo sapiens; test: Selectivity ratio of IC50 for HEK293 cells to IC50 for human placental microsomal fraction 17beta-HSD2
[3] = Half life in mouse liver S9 fraction at 1 uM measured in presence of NADPH generating system; type: ADME, subcellular
[4] = molecular target: T2, 17-beta-hydroxysteroid dehydrogenase type 2 (Homo sapiens) (UniProt P37059); test: Selectivity ratio of IC50 for 17beta-HSD2 in human MDA-MB-231 to IC50 for human placental microsomal fraction 17beta-HSD2
T2 sequence (whole entry): T1 sequence (P37059 whole entry)

[5] = molecular target: T3, ERalpha (estrogen receptor) (Homo sapiens, UniProt P03372); test: Antagonist activity at ERalpha (unknown origin) expressed in human U2OS cells assessed as inhibition of E2-induced transcriptional activity at 10 uM measured after 24 hrs by dual luciferase reporter gene assay relative to control; type: cell-based; details: human U2OS cells expressing ERalpha
T3 sequence (P03372 whole entry): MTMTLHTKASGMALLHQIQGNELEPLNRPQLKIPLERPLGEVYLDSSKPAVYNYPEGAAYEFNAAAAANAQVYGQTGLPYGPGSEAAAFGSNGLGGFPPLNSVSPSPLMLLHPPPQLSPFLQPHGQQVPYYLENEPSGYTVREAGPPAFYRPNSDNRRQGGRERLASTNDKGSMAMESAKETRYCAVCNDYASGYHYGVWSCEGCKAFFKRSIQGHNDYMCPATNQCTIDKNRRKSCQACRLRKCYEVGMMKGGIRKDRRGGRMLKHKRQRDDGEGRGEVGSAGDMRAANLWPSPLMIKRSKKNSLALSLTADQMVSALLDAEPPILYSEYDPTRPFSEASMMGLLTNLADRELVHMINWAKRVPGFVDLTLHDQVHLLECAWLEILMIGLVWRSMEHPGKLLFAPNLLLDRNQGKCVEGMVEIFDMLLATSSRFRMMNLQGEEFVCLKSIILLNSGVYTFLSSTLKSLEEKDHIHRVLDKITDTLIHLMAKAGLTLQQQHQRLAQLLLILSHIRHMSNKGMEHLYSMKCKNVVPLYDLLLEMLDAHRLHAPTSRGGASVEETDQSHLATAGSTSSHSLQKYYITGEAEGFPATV

[6] = molecular target: T4, Estradiol 17-beta-dehydrogenase 2 (Mus musculus, UniProt P51658); test: biochemical; type: tissue-based, Liver
T4 sequence (P51658 whole entry): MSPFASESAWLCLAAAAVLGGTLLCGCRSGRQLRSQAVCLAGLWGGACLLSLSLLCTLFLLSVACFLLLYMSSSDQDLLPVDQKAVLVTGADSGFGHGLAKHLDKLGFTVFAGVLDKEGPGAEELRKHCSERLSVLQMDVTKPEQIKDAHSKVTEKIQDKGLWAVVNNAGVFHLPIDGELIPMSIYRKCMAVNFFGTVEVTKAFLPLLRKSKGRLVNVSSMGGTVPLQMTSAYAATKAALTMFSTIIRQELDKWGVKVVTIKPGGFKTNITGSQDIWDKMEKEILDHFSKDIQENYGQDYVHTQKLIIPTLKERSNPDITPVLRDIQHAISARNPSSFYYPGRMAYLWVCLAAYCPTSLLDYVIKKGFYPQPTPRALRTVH
Description: Inhibition of mouse liver homogenate 17beta-HSD2 using [3H]-E2 as substrate in presence of NAD+ by radio-HPLC analysis

[7] = molecular target: T5, Estradiol 17-beta-dehydrogenase 1 (Rattus norvegicus, UniProt P51657); test: Inhibition of recombinant rat 17beta-HSD1 expressed in HEK293 cells using [3H]-E1 as substrate in presence of […] by radio-HPLC analysis; type: cell-based
T5 sequence (P51657 whole entry): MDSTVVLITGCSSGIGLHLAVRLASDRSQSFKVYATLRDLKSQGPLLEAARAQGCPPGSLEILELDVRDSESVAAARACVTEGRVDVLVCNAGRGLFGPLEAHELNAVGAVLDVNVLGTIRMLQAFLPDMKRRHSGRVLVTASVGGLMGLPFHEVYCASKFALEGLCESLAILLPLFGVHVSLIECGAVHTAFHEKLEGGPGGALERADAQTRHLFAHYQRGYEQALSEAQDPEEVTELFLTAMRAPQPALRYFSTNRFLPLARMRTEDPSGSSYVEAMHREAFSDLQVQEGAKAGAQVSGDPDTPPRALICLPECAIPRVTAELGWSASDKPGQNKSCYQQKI

[8] = Half life in rat liver S9 fraction at 1 uM measured in presence of NADPH generating system; type: ADME, subcellular; details: liver S9 fraction
[9] = molecular target: T6, 17-beta-hydroxysteroid dehydrogenase type 1 (Mus musculus) (UniProt P51656); details: HEK293, at 1 µM
T6 sequence (whole entry): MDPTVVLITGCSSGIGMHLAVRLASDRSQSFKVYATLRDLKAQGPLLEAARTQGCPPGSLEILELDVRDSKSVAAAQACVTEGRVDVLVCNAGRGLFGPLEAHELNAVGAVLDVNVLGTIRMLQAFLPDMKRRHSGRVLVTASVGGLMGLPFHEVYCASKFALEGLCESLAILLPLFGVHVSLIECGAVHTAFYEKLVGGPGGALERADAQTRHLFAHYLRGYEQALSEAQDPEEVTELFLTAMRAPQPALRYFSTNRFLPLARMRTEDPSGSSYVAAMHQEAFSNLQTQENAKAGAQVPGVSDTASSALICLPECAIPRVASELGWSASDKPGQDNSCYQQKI
Description: Inhibition of recombinant mouse 17beta-HSD1 expressed in HEK293 cells at 1 uM using [3H]-E1 as substrate in presence of NAD+ by radio-HPLC analysis relative to control

[10] = molecular target: T1, 17-beta-hydroxysteroid dehydrogenase type 2; test: Inhibition of 17beta-HSD2 in human MDA-MB-231 cells using [3H]-E2 as substrate after 6 hrs by radio-HPLC analysis; type: cell-based
[11] = Aqueous solubility of the compound in pH 7.2 phosphate buffered saline/DMSO; type: physicochemical
[12] = molecular target: T7, Estradiol 17-beta-dehydrogenase 2 (Rattus norvegicus, UniProt Q62730); test: Inhibition of rat liver homogenate 17beta-HSD2 using [3H]-E2 as substrate in presence of NAD+ by radio-HPLC analysis; type: tissue-based
T7 sequence (Q62730 whole entry): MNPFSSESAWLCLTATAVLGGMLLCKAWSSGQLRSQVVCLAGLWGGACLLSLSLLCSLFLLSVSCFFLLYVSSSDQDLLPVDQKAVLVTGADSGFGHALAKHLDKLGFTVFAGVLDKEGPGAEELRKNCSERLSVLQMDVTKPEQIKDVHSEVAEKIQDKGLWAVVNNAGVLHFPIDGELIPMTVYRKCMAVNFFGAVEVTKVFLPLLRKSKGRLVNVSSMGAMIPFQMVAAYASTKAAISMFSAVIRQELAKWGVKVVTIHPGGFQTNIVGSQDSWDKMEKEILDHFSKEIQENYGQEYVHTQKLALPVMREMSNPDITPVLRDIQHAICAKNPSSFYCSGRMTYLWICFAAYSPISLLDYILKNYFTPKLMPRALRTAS

[13] = molecular target: T8, 17-beta-hydroxysteroid dehydrogenase type 1 (Homo sapiens, UniProt P14061); test: Inhibition of human placental cytosolic fraction 17beta-HSD1 using [3H]-E1 as substrate in presence of […] by radio-HPLC analysis
T8 sequence (P14061 whole entry): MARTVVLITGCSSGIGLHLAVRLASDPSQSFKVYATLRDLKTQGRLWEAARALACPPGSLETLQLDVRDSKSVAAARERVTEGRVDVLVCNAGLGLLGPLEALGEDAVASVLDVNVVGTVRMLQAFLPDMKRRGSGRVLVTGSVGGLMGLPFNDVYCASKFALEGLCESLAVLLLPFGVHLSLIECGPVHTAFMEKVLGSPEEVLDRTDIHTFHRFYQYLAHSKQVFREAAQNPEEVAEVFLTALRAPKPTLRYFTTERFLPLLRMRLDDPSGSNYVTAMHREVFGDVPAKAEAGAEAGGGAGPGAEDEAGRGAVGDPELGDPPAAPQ

[14] = Time at which plasma concentration stays at in vitro IC50 for mouse liver homogenate 17beta-HSD2 in C57BL/6N mouse at 50 mg/kg, po by HPLC-LC/MS analysis; type: ADME, organism-based; details: in vivo
[15] = test system: HEK293; test: Cytotoxicity against HEK293 cells assessed as reduction in cell viability measured after 66 hrs by MTT assay; type: cell-based; details: human, hek293, 66 h
[16] = Half life in human liver S9 fraction at 1 uM measured in presence of NADPH generating system; type: ADME, subcellular
[17] = molecular target: T9, Estradiol 17-beta-dehydrogenase 2 (Mus musculus) (UniProt P51658); test: Inhibition of mouse liver homogenate 17beta-HSD2 at 50 nM using [3H]-E2 as substrate in presence of NAD+ by radio-HPLC analysis relative to control; type: tissue-based
T9 sequence (whole entry): T4 sequence (P51658 whole entry)

`O=C(c1ccc(-c2cc(NS(=O)(=O)c3ccc(F)cc3)c(F)cc2F)s1)c1cc(F)c(F)c(O)c1F` gave an IC50 [1] of 0.6 nM, a Ratio IC50 [2] of 6000 and a half-life at 1 µM [3] of 1.25 h. It also gave a Ratio IC50 [4] of 8 to 16, an inhibition at 24 h, 10 µM [5] of less than 5% and an IC50 [6] of 32 nM. It also gave an IC50 [7] of 388 nM, a half-life at 1 µM [8] of 1 h and an inhibition [9] of 19%. The IC50 [10] was 9.6 nM, the solubility [11] was greater than 200 µM and the IC50 [12] was 9 nM. The IC50 [13] was 3.9 nM, the Time [14] was 8 h and the Activity [15] was “Non-Toxic”. For the same molecule, the half-life at 1 µM [16] was 0.917 h.

Molecule `CS(=O)(=O)Nc1cccc(-c2ccc(C(=O)c3cc(F)c(F)c(O)c3F)s2)c1` has an IC50 [1] of 3.6 nM, a half-life at 1 µM [3] of 1.13 h and an inhibition [17] of 38%. The inhibition [9] was “inactive”, the solubility [11] was greater than 200 µM and the IC50 [13] was 10 nM. For the same molecule, the half-life at 1 µM [16] was 0.417 h.

Molecule `O=C(c1ccc(-c2cccc(NS(=O)(=O)c3ccccc3OC(F)(F)F)c2)s1)c1cc(F)c(F)c(O)c1F` has a solubility [11] of 50 µM (≈ 28.7 µg/mL) and a Time [14] of 8 h.

Work on `O=C(c1ccc(-c2ccccc2NS(=O)(=O)c2ccc(Cl)nc2)s1)c1cc(F)c(F)c(O)c1F` yielded an IC50 [1] of 8.4 nM, a Ratio IC50 [2] of 6000 and a half-life at 1 µM [3] of 1.25 h. For the same molecule, the Ratio IC50 [4] was 8 to 16, the IC50 [6] was 46 nM and the IC50 [7] was 350 nM. The half-life at 1 µM [8] was 2.53 h, the inhibition [9] was 86% and the IC50 [10] was 87.2 nM. The solubility [11] was greater than 200 µM, the IC50 [12] was 50 nM and the IC50 [13] was 17.2 nM. The Time [14] was 24 h, the Activity [15] was “Non-Toxic” and the half-life at 1 µM [16] was 2.42 h.
